Experimental data as given in PubChem BioAssay (NCI).
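The compound was tested at five concentrations on cells cultured in 96-well plates, with a 48-hour exposure period. GI50 is the concentration that inhibits growth by half. TGI: total growth inhibition.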

These compounds were tested on SF-268 CNS (assay: NCI tumour cell line growth inhibition, 48 h).

Point of comparison: `C/C(=C\CO)CC/C=C(\C)CNc1c(F)c(F)c(F)c(F)c1F`, TGI 67.3 µM. Against it:
- COC(=O)Nc1nc2ccc(S(=O)c3ccccc3)cc2[nH]1 (stereo unspecified) — higher, > 100 µM

`COC(=O)Nc1nc2ccc(S(=O)c3ccccc3)cc2[nH]1` (stereo unspecified) was tested, and the GI50 was greater than 100 µM.

Each compound was assayed on A549 NSCLC (assay: NCI tumour cell line growth inhibition, 48 h).

Point of comparison: `COC(=O)Nc1nc2ccc(S(=O)c3ccccc3)cc2[nH]1` (stereo unspecified), GI50 5.48 µM. Against it:
- Cc1cc2nc(C(Cl)Cl)nc(-c3ccc(Cl)cc3)n2n1 — 12-fold lower, 0.448 µM
- CC1=C(C#N)C23C(=O)c4ccccc4C(O)=C2C(=O)C=CC3(O)N1Cc1ccccc1 (stereo unspecified) — 13-fold higher, 72.2 µM

Point of comparison: `Cc1cc2nc(C(Cl)Cl)nc(-c3ccc(Cl)cc3)n2n1`, TGI 3.28 µM. Against it:
- CC1=C(C#N)C23C(=O)c4ccccc4C(O)=C2C(=O)C=CC3(O)N1Cc1ccccc1 (stereo unspecified) — higher, > 100 µM
- C/C(=C\CO)CC/C=C(\C)CNc1c(F)c(F)c(F)c(F)c1F — 29-fold higher, 94.8 µM
- COC(=O)Nc1nc2ccc(S(=O)c3ccccc3)cc2[nH]1 (stereo unspecified) — higher, > 100 µM

Each compound was assayed on IGROV1 ovarian (assay: NCI tumour cell line growth inhibition, 48 h).

Point of comparison: `Cc1cc2nc(C(Cl)Cl)nc(-c3ccc(Cl)cc3)n2n1`, GI50 1.38 µM. Against it:
- CC1=C(C#N)C23C(=O)c4ccccc4C(O)=C2C(=O)C=CC3(O)N1Cc1ccccc1 (stereo unspecified) — 17-fold higher, 23.9 µM
- COC(=O)Nc1nc2ccc(S(=O)c3ccccc3)cc2[nH]1 (stereo unspecified) — 5.4-fold higher, 7.51 µM

Point of comparison: `CC1=C(C#N)C23C(=O)c4ccccc4C(O)=C2C(=O)C=CC3(O)N1Cc1ccccc1` (stereo unspecified), TGI 72.4 µM. Against it:
- Cc1cc2nc(C(Cl)Cl)nc(-c3ccc(Cl)cc3)n2n1 — 14-fold lower, 5.28 µM
- C/C(=C\CO)CC/C=C(\C)CNc1c(F)c(F)c(F)c(F)c1F — higher, > 100 µM
- COC(=O)Nc1nc2ccc(S(=O)c3ccccc3)cc2[nH]1 (stereo unspecified) — higher, > 100 µM

Each compound was assayed on SF-295 CNS (assay: NCI tumour cell line growth inhibition, 48 h).

Point of comparison: `CC1=C(C#N)C23C(=O)c4ccccc4C(O)=C2C(=O)C=CC3(O)N1Cc1ccccc1` (stereo unspecified), GI50 17.6 µM. Against it:
- Cc1cc2nc(C(Cl)Cl)nc(-c3ccc(Cl)cc3)n2n1 — 14-fold lower, 1.3 µM

Point of comparison: `Cc1cc2nc(C(Cl)Cl)nc(-c3ccc(Cl)cc3)n2n1`, TGI 4.75 µM. Against it:
- CC1=C(C#N)C23C(=O)c4ccccc4C(O)=C2C(=O)C=CC3(O)N1Cc1ccccc1 (stereo unspecified) — higher, > 100 µM
- C/C(=C\CO)CC/C=C(\C)CNc1c(F)c(F)c(F)c(F)c1F — 11-fold higher, 52.9 µM

The compounds below were run on HCC-2998 colon (assay: NCI tumour cell line growth inhibition, 48 h).

Point of comparison: `COC(=O)Nc1nc2ccc(S(=O)c3ccccc3)cc2[nH]1` (stereo unspecified), GI50 10.5 µM. Against it:
- Cc1cc2nc(C(Cl)Cl)nc(-c3ccc(Cl)cc3)n2n1 — 13-fold lower, 0.788 µM
- CC1=C(C#N)C23C(=O)c4ccccc4C(O)=C2C(=O)C=CC3(O)N1Cc1ccccc1 (stereo unspecified) — higher, > 100 µM

Point of comparison: `Cc1cc2nc(C(Cl)Cl)nc(-c3ccc(Cl)cc3)n2n1`, TGI 2.33 µM. Against it:
- CC1=C(C#N)C23C(=O)c4ccccc4C(O)=C2C(=O)C=CC3(O)N1Cc1ccccc1 (stereo unspecified) — higher, > 100 µM
- C/C(=C\CO)CC/C=C(\C)CNc1c(F)c(F)c(F)c(F)c1F — 26-fold higher, 59.8 µM
- COC(=O)Nc1nc2ccc(S(=O)c3ccccc3)cc2[nH]1 (stereo unspecified) — higher, > 100 µM

What follows are compounds tested on HOP-62 NSCLC (assay: NCI tumour cell line growth inhibition, 48 h).

Point of comparison: `CC1=C(C#N)C23C(=O)c4ccccc4C(O)=C2C(=O)C=CC3(O)N1Cc1ccccc1` (stereo unspecified), GI50 49.9 µM. Against it:
- Cc1cc2nc(C(Cl)Cl)nc(-c3ccc(Cl)cc3)n2n1 — 58-fold lower, 0.864 µM
- COC(=O)Nc1nc2ccc(S(=O)c3ccccc3)cc2[nH]1 (stereo unspecified) — 14-fold lower, 3.64 µM

Point of comparison: `Cc1cc2nc(C(Cl)Cl)nc(-c3ccc(Cl)cc3)n2n1`, TGI 4.27 µM. Against it:
- CC1=C(C#N)C23C(=O)c4ccccc4C(O)=C2C(=O)C=CC3(O)N1Cc1ccccc1 (stereo unspecified) — higher, > 100 µM
- C/C(=C\CO)CC/C=C(\C)CNc1c(F)c(F)c(F)c(F)c1F — 16-fold higher, 68 µM
- COC(=O)Nc1nc2ccc(S(=O)c3ccccc3)cc2[nH]1 (stereo unspecified) — higher, > 100 µM

The compounds below were run on OVCAR-5 ovarian (assay: NCI tumour cell line growth inhibition, 48 h).

Point of comparison: `Cc1cc2nc(C(Cl)Cl)nc(-c3ccc(Cl)cc3)n2n1`, GI50 1.85 µM. Against it:
- CC1=C(C#N)C23C(=O)c4ccccc4C(O)=C2C(=O)C=CC3(O)N1Cc1ccccc1 (stereo unspecified) — 16-fold higher, 30.3 µM
- COC(=O)Nc1nc2ccc(S(=O)c3ccccc3)cc2[nH]1 (stereo unspecified) — 4.9-fold higher, 9.12 µM

Point of comparison: `Cc1cc2nc(C(Cl)Cl)nc(-c3ccc(Cl)cc3)n2n1`, TGI 5.56 µM. Against it:
- CC1=C(C#N)C23C(=O)c4ccccc4C(O)=C2C(=O)C=CC3(O)N1Cc1ccccc1 (stereo unspecified) — higher, > 100 µM
- C/C(=C\CO)CC/C=C(\C)CNc1c(F)c(F)c(F)c(F)c1F — higher, > 100 µM
- COC(=O)Nc1nc2ccc(S(=O)c3ccccc3)cc2[nH]1 (stereo unspecified) — higher, > 100 µM

The compounds below were run on NCI/ADR-RES ovarian (assay: NCI tumour cell line growth inhibition, 48 h).

Point of comparison: `COC(=O)Nc1nc2ccc(S(=O)c3ccccc3)cc2[nH]1` (stereo unspecified), GI50 3.81 µM. Against it:
- Cc1cc2nc(C(Cl)Cl)nc(-c3ccc(Cl)cc3)n2n1 — 5.6-fold lower, 0.682 µM
- CC1=C(C#N)C23C(=O)c4ccccc4C(O)=C2C(=O)C=CC3(O)N1Cc1ccccc1 (stereo unspecified) — within 1.5-fold, 2.84 µM

Point of comparison: `CC1=C(C#N)C23C(=O)c4ccccc4C(O)=C2C(=O)C=CC3(O)N1Cc1ccccc1` (stereo unspecified), TGI 30.6 µM. Against it:
- Cc1cc2nc(C(Cl)Cl)nc(-c3ccc(Cl)cc3)n2n1 — 7.9-fold lower, 3.89 µM
- C/C(=C\CO)CC/C=C(\C)CNc1c(F)c(F)c(F)c(F)c1F — 2.8-fold higher, 86.2 µM
- COC(=O)Nc1nc2ccc(S(=O)c3ccccc3)cc2[nH]1 (stereo unspecified) — higher, > 100 µM

Each compound was assayed on SNB-75 CNS (assay: NCI tumour cell line growth inhibition, 48 h).

Point of comparison: `CC1=C(C#N)C23C(=O)c4ccccc4C(O)=C2C(=O)C=CC3(O)N1Cc1ccccc1` (stereo unspecified), GI50 36.6 µM. Against it:
- Cc1cc2nc(C(Cl)Cl)nc(-c3ccc(Cl)cc3)n2n1 — 33-fold lower, 1.1 µM
- COC(=O)Nc1nc2ccc(S(=O)c3ccccc3)cc2[nH]1 (stereo unspecified) — 21-fold lower, 1.75 µM

Point of comparison: `C/C(=C\CO)CC/C=C(\C)CNc1c(F)c(F)c(F)c(F)c1F`, TGI 66.3 µM. Against it:
- Cc1cc2nc(C(Cl)Cl)nc(-c3ccc(Cl)cc3)n2n1 — 15-fold lower, 4.34 µM
- CC1=C(C#N)C23C(=O)c4ccccc4C(O)=C2C(=O)C=CC3(O)N1Cc1ccccc1 (stereo unspecified) — higher, > 100 µM
- COC(=O)Nc1nc2ccc(S(=O)c3ccccc3)cc2[nH]1 (stereo unspecified) — 12-fold lower, 5.75 µM

Each compound was assayed on BT-549 breast (assay: NCI tumour cell line growth inhibition, 48 h).

Point of comparison: `Cc1cc2nc(C(Cl)Cl)nc(-c3ccc(Cl)cc3)n2n1`, GI50 2.75 µM. Against it:
- CC1=C(C#N)C23C(=O)c4ccccc4C(O)=C2C(=O)C=CC3(O)N1Cc1ccccc1 (stereo unspecified) — 13-fold higher, 36.2 µM
- COC(=O)Nc1nc2ccc(S(=O)c3ccccc3)cc2[nH]1 (stereo unspecified) — within 1.5-fold, 3.98 µM

Point of comparison: `C/C(=C\CO)CC/C=C(\C)CNc1c(F)c(F)c(F)c(F)c1F`, TGI 22.3 µM. Against it:
- Cc1cc2nc(C(Cl)Cl)nc(-c3ccc(Cl)cc3)n2n1 — higher, > 100 µM
- CC1=C(C#N)C23C(=O)c4ccccc4C(O)=C2C(=O)C=CC3(O)N1Cc1ccccc1 (stereo unspecified) — higher, > 100 µM
- COC(=O)Nc1nc2ccc(S(=O)c3ccccc3)cc2[nH]1 (stereo unspecified) — higher, > 100 µM

Each compound was assayed on HL-60(TB) leukemia (assay: NCI tumour cell line growth inhibition, 48 h).

Point of comparison: `CC1=C(C#N)C23C(=O)c4ccccc4C(O)=C2C(=O)C=CC3(O)N1Cc1ccccc1` (stereo unspecified), GI50 37.8 µM. Against it:
- Cc1cc2nc(C(Cl)Cl)nc(-c3ccc(Cl)cc3)n2n1 — 34-fold lower, 1.11 µM
- COC(=O)Nc1nc2ccc(S(=O)c3ccccc3)cc2[nH]1 (stereo unspecified) — 15-fold lower, 2.44 µM

Point of comparison: `COC(=O)Nc1nc2ccc(S(=O)c3ccccc3)cc2[nH]1` (stereo unspecified), TGI 6.5 µM. Against it:
- CC1=C(C#N)C23C(=O)c4ccccc4C(O)=C2C(=O)C=CC3(O)N1Cc1ccccc1 (stereo unspecified) — higher, > 100 µM
- C/C(=C\CO)CC/C=C(\C)CNc1c(F)c(F)c(F)c(F)c1F — 10-fold higher, 65.8 µM

The compounds below were run on MOLT-4 leukemia (assay: NCI tumour cell line growth inhibition, 48 h).

Point of comparison: `COC(=O)Nc1nc2ccc(S(=O)c3ccccc3)cc2[nH]1` (stereo unspecified), GI50 5.86 µM. Against it:
- Cc1cc2nc(C(Cl)Cl)nc(-c3ccc(Cl)cc3)n2n1 — 5.8-fold lower, 1.01 µM

`Cc1cc2nc(C(Cl)Cl)nc(-c3ccc(Cl)cc3)n2n1` and `COC(=O)Nc1nc2ccc(S(=O)c3ccccc3)cc2[nH]1` (stereo unspecified) cannot be ordered by TGI: greater than 100 µM for the first, greater than 100 µM for the second.

In the case of `C/C(=C\CO)CC/C=C(\C)CNc1c(F)c(F)c(F)c(F)c1F`, the TGI is reported as greater than 100 µM.

Each compound was assayed on OVCAR-8 ovarian (assay: NCI tumour cell line growth inhibition, 48 h).

Point of comparison: `CC1=C(C#N)C23C(=O)c4ccccc4C(O)=C2C(=O)C=CC3(O)N1Cc1ccccc1` (stereo unspecified), GI50 38.5 µM. Against it:
- Cc1cc2nc(C(Cl)Cl)nc(-c3ccc(Cl)cc3)n2n1 — 40-fold lower, 0.964 µM
- COC(=O)Nc1nc2ccc(S(=O)c3ccccc3)cc2[nH]1 (stereo unspecified) — 2.6-fold lower, 14.8 µM

Point of comparison: `C/C(=C\CO)CC/C=C(\C)CNc1c(F)c(F)c(F)c(F)c1F`, TGI 38 µM. Against it:
- Cc1cc2nc(C(Cl)Cl)nc(-c3ccc(Cl)cc3)n2n1 — higher, > 100 µM
- CC1=C(C#N)C23C(=O)c4ccccc4C(O)=C2C(=O)C=CC3(O)N1Cc1ccccc1 (stereo unspecified) — higher, > 100 µM
- COC(=O)Nc1nc2ccc(S(=O)c3ccccc3)cc2[nH]1 (stereo unspecified) — higher, > 100 µM

These compounds were tested on HCT-116 colon (assay: NCI tumour cell line growth inhibition, 48 h).

Point of comparison: `Cc1cc2nc(C(Cl)Cl)nc(-c3ccc(Cl)cc3)n2n1`, GI50 0.566 µM. Against it:
- CC1=C(C#N)C23C(=O)c4ccccc4C(O)=C2C(=O)C=CC3(O)N1Cc1ccccc1 (stereo unspecified) — 61-fold higher, 34.8 µM
- COC(=O)Nc1nc2ccc(S(=O)c3ccccc3)cc2[nH]1 (stereo unspecified) — 6.2-fold higher, 3.5 µM

`Cc1cc2nc(C(Cl)Cl)nc(-c3ccc(Cl)cc3)n2n1` and `COC(=O)Nc1nc2ccc(S(=O)c3ccccc3)cc2[nH]1` (stereo unspecified) cannot be ordered by TGI: greater than 33.1 µM for the first, greater than 100 µM for the second.

`CC1=C(C#N)C23C(=O)c4ccccc4C(O)=C2C(=O)C=CC3(O)N1Cc1ccccc1` (stereo unspecified) and `C/C(=C\CO)CC/C=C(\C)CNc1c(F)c(F)c(F)c(F)c1F` cannot be ordered by TGI: greater than 100 µM for the first, greater than 100 µM for the second.

Each compound was assayed on OVCAR-3 ovarian (assay: NCI tumour cell line growth inhibition, 48 h).

Point of comparison: `COC(=O)Nc1nc2ccc(S(=O)c3ccccc3)cc2[nH]1` (stereo unspecified), GI50 7.39 µM. Against it:
- Cc1cc2nc(C(Cl)Cl)nc(-c3ccc(Cl)cc3)n2n1 — 15-fold lower, 0.491 µM
- CC1=C(C#N)C23C(=O)c4ccccc4C(O)=C2C(=O)C=CC3(O)N1Cc1ccccc1 (stereo unspecified) — 4.3-fold higher, 32 µM

Point of comparison: `C/C(=C\CO)CC/C=C(\C)CNc1c(F)c(F)c(F)c(F)c1F`, TGI 52.8 µM. Against it:
- Cc1cc2nc(C(Cl)Cl)nc(-c3ccc(Cl)cc3)n2n1 — 28-fold lower, 1.87 µM
- CC1=C(C#N)C23C(=O)c4ccccc4C(O)=C2C(=O)C=CC3(O)N1Cc1ccccc1 (stereo unspecified) — higher, > 100 µM
- COC(=O)Nc1nc2ccc(S(=O)c3ccccc3)cc2[nH]1 (stereo unspecified) — higher, > 100 µM
